#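 These data come from cells grown in 96-well plates and exposed to compound for 48 hours at five concentrations. TGI is the concentration that stops growth completely.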
# Tested on: UO-31 renal
# Assay: DTP human tumour cell line panel, 48 h
row,Compound,TGI [µM]
1,Cc1ccc(Cl)c2c(=O)c3ccc(N)cc3sc12,41.2
2,C=CCN1CCC(O)(c2cc(C(=O)OCC)[nH]c2-c2cc(C)no2)C1 (stereo not given),> 100
3,CC1CN=C(N(C(=O)Nc2ccc(Cl)c(Cl)c2)c2ccccc2)S1 (stereo not given),> 100
4,CN(C)/N=C1/CCC(C(F)(F)F)(C(F)(F)F)O1,98.2
5,CCOC(=O)NNC(=O)NCCCCNC(=O)NNC(=O)OCC,> 100
6,COC(=O)c1nsc(OC)c1Cl,> 100
7,[N-]=[N+]=NCc1nc(N)c2c3c(sc2n1)CCCC3,0.227
8,CC(C)(C)OC/C=C(/CO)[C@@H]1C=C[C@H](O)C1,> 100
9,c1ccc2c(c1)SCCC2NC1=NCCO1 (stereo not given),> 100
10,C=CCN(C(=O)CNC(=O)C(F)(F)F)c1cc(OCc2ccccc2)c2c(c1)c(C)cn2S(=O)(=O)c1ccccc1,15.6
11,COc1cccc(C2c3cc4c(cc3OC(C)(N3CCCC3)C2C)OCO4)c1 (stereo not given),39.9
12,CCSC1=N/C(=C\c2ccc(N(C)C)cc2)C(Cl)=N1,> 100
13,COC1(OC)CCCc2c1no[n+]2[O-],> 100
14,O=C(CC(C(=O)c1ccsc1)c1ccccc1)c1ccccc1 (stereo not given),> 100
15,CC1(C)OC[C@@H]([C@H](O)C2C=CC(=O)S2)O1 (stereo not given in full),50
16,O=C1C=C(NCCOCCO)C(=O)c2c(O)ccc(O)c21,> 100
17,CC1CN=C(N(C(=O)Nc2ccccc2)c2ccc(Cl)c(Cl)c2)S1 (stereo not given),> 100
18,CC(=O)O[C@H]1CC[C@@]2(C)C(=CC[C@H]3[C@@H]4C/C(=C\c5ccc(N(C)C)cc5)[C@H](OC(C)=O)[C@@]4(C)CC[C@@H]32)C1,27.7

# Tested on: COLO 205 colon
# Assay: DTP human tumour cell line panel, 48 h
row,Compound,TGI [µM]
1,Cn1c2c(c3ccccc31)CCN1C(=O)CN(C(=O)C3CCCCC3)CC21 (stereo not given),> 100
2,CC(=O)OCC1OC(OC2CC3C(C)(C)C(O)CC[C@]3(C)C3CCC45CC4(CCC5[C@@H](C)CC(O)C(O)C(C)(C)O)[C@]23C)C(O)C(O)C1O (stereo not given in full),> 10
3,C=C(Nc1nc2ccc(C)cc2s1)C(=O)C(CC)C(=O)C(CC)CC1C(=O)NC(=O)NC1=O (stereo not given),> 100
4,COc1ccc(OC)c(/C=C(/C#N)c2ccccc2)c1,> 100
5,COC(=O)C(C(=O)Cc1ccccc1[N+](=O)[O-])C(=O)OC,> 100
6,CCOC(=O)c1sc2c(c1OC(=O)c1ccc(OC)cc1)c(=O)n(-c1ccccc1)c(=S)n2-c1ccccc1,> 100
7,O=C(Cn1c(-c2ccccc2)cc2ccccc21)N1CCCC1,> 100
8,Cc1ccc(Cl)c2c(=O)c3ccc(N)cc3sc12,37.5
9,C=CCN1CCC(O)(c2cc(C(=O)OCC)[nH]c2-c2cc(C)no2)C1 (stereo not given),> 100
10,CC1CN=C(N(C(=O)Nc2ccc(Cl)c(Cl)c2)c2ccccc2)S1 (stereo not given),> 100
11,CN(C)/N=C1/CCC(C(F)(F)F)(C(F)(F)F)O1,31.2
12,N#Cc1c(-c2ccc(Cl)cc2)c(C#N)c(=O)n(NS(=O)(=O)c2ccccc2)c1O,> 100
13,CCOC(=O)NNC(=O)NCCCCNC(=O)NNC(=O)OCC,> 100
14,COC(=O)c1nsc(OC)c1Cl,> 100
15,[N-]=[N+]=NCc1nc(N)c2c3c(sc2n1)CCCC3,> 39.3
16,CC(C)(C)OC/C=C(/CO)[C@@H]1C=C[C@H](O)C1,> 100
17,c1ccc2c(c1)SCCC2NC1=NCCO1 (stereo not given),> 100
18,C=CCN(C(=O)CNC(=O)C(F)(F)F)c1cc(OCc2ccccc2)c2c(c1)c(C)cn2S(=O)(=O)c1ccccc1,> 100
19,CSc1ccsc1-c1sc(-c2cc(SC)c(-c3sc(-c4cc(SC)c(-c5sccc5SC)s4)cc3SC)s2)cc1SC,> 100
20,COc1cccc(C2c3cc4c(cc3OC(C)(N3CCCC3)C2C)OCO4)c1 (stereo not given),23.6
21,CCSC1=N/C(=C\c2ccc(N(C)C)cc2)C(Cl)=N1,> 100
22,COC1(OC)CCCc2c1no[n+]2[O-],> 100
23,O=C(CC(C(=O)c1ccsc1)c1ccccc1)c1ccccc1 (stereo not given),> 100
24,CC1(C)OC[C@@H]([C@H](O)C2C=CC(=O)S2)O1 (stereo not given in full),40.5
25,Cc1cc(C(F)(F)F)cc(-n2nc(NS(=O)(=O)c3cc(C)c(Cl)cc3S)nc2N)n1,> 100
26,O=C1C=C(NCCOCCO)C(=O)c2c(O)ccc(O)c21,32.7
27,CC1CN=C(N(C(=O)Nc2ccccc2)c2ccc(Cl)c(Cl)c2)S1 (stereo not given),> 10
28,CC(=O)O[C@H]1CC[C@@]2(C)C(=CC[C@H]3[C@@H]4C/C(=C\c5ccc(N(C)C)cc5)[C@H](OC(C)=O)[C@@]4(C)CC[C@@H]32)C1,29.4

# Tested on: SK-MEL-28 melanoma
# Assay: DTP human tumour cell line panel, 48 h
row,Compound,TGI [µM]
1,Cn1c2c(c3ccccc31)CCN1C(=O)CN(C(=O)C3CCCCC3)CC21 (stereo not given),> 100
2,CC(=O)OCC1OC(OC2CC3C(C)(C)C(O)CC[C@]3(C)C3CCC45CC4(CCC5[C@@H](C)CC(O)C(O)C(C)(C)O)[C@]23C)C(O)C(O)C1O (stereo not given in full),> 10
3,C=C(Nc1nc2ccc(C)cc2s1)C(=O)C(CC)C(=O)C(CC)CC1C(=O)NC(=O)NC1=O (stereo not given),> 100
4,COc1ccc(OC)c(/C=C(/C#N)c2ccccc2)c1,> 100
5,COC(=O)C(C(=O)Cc1ccccc1[N+](=O)[O-])C(=O)OC,> 100
6,CCOC(=O)c1sc2c(c1OC(=O)c1ccc(OC)cc1)c(=O)n(-c1ccccc1)c(=S)n2-c1ccccc1,> 100
7,C=CCN1CCC(O)(c2cc(C(=O)OCC)[nH]c2-c2cc(C)no2)C1 (stereo not given),> 100
8,CC1CN=C(N(C(=O)Nc2ccc(Cl)c(Cl)c2)c2ccccc2)S1 (stereo not given),> 100
9,CN(C)/N=C1/CCC(C(F)(F)F)(C(F)(F)F)O1,> 100
10,N#Cc1c(-c2ccc(Cl)cc2)c(C#N)c(=O)n(NS(=O)(=O)c2ccccc2)c1O,> 100
11,CCOC(=O)NNC(=O)NCCCCNC(=O)NNC(=O)OCC,> 100
12,COC(=O)c1nsc(OC)c1Cl,> 100
13,[N-]=[N+]=NCc1nc(N)c2c3c(sc2n1)CCCC3,36.3
14,CC(C)(C)OC/C=C(/CO)[C@@H]1C=C[C@H](O)C1,> 100
15,c1ccc2c(c1)SCCC2NC1=NCCO1 (stereo not given),> 100
16,C=CCN(C(=O)CNC(=O)C(F)(F)F)c1cc(OCc2ccccc2)c2c(c1)c(C)cn2S(=O)(=O)c1ccccc1,> 100
17,CSc1ccsc1-c1sc(-c2cc(SC)c(-c3sc(-c4cc(SC)c(-c5sccc5SC)s4)cc3SC)s2)cc1SC,> 100
18,COc1cccc(C2c3cc4c(cc3OC(C)(N3CCCC3)C2C)OCO4)c1 (stereo not given),> 100
19,CCSC1=N/C(=C\c2ccc(N(C)C)cc2)C(Cl)=N1,> 100
20,COC1(OC)CCCc2c1no[n+]2[O-],> 100
21,O=C(CC(C(=O)c1ccsc1)c1ccccc1)c1ccccc1 (stereo not given),> 100
22,Cc1cc(C(F)(F)F)cc(-n2nc(NS(=O)(=O)c3cc(C)c(Cl)cc3S)nc2N)n1,> 100
23,O=C1C=C(NCCOCCO)C(=O)c2c(O)ccc(O)c21,> 100
24,CC1CN=C(N(C(=O)Nc2ccccc2)c2ccc(Cl)c(Cl)c2)S1 (stereo not given),> 100
25,CC(=O)O[C@H]1CC[C@@]2(C)C(=CC[C@H]3[C@@H]4C/C(=C\c5ccc(N(C)C)cc5)[C@H](OC(C)=O)[C@@]4(C)CC[C@@H]32)C1,32.8

# Tested on: SNB-19 CNS
# Assay: DTP human tumour cell line panel, 48 h
row,Compound,TGI [µM]
1,Cn1c2c(c3ccccc31)CCN1C(=O)CN(C(=O)C3CCCCC3)CC21 (stereo not given),> 100
2,CC(=O)OCC1OC(OC2CC3C(C)(C)C(O)CC[C@]3(C)C3CCC45CC4(CCC5[C@@H](C)CC(O)C(O)C(C)(C)O)[C@]23C)C(O)C(O)C1O (stereo not given in full),> 10
3,C=C(Nc1nc2ccc(C)cc2s1)C(=O)C(CC)C(=O)C(CC)CC1C(=O)NC(=O)NC1=O (stereo not given),> 100
4,COc1ccc(OC)c(/C=C(/C#N)c2ccccc2)c1,> 100
5,COC(=O)C(C(=O)Cc1ccccc1[N+](=O)[O-])C(=O)OC,> 100
6,CCOC(=O)c1sc2c(c1OC(=O)c1ccc(OC)cc1)c(=O)n(-c1ccccc1)c(=S)n2-c1ccccc1,> 100
7,O=C(Cn1c(-c2ccccc2)cc2ccccc21)N1CCCC1,> 100
8,Cc1ccc(Cl)c2c(=O)c3ccc(N)cc3sc12,> 100
9,C=CCN1CCC(O)(c2cc(C(=O)OCC)[nH]c2-c2cc(C)no2)C1 (stereo not given),> 100
10,CC1CN=C(N(C(=O)Nc2ccc(Cl)c(Cl)c2)c2ccccc2)S1 (stereo not given),> 100
11,CN(C)/N=C1/CCC(C(F)(F)F)(C(F)(F)F)O1,> 100
12,N#Cc1c(-c2ccc(Cl)cc2)c(C#N)c(=O)n(NS(=O)(=O)c2ccccc2)c1O,> 100
13,CCOC(=O)NNC(=O)NCCCCNC(=O)NNC(=O)OCC,> 100
14,COC(=O)c1nsc(OC)c1Cl,> 100
15,[N-]=[N+]=NCc1nc(N)c2c3c(sc2n1)CCCC3,21.4
16,CC(C)(C)OC/C=C(/CO)[C@@H]1C=C[C@H](O)C1,> 100
17,c1ccc2c(c1)SCCC2NC1=NCCO1 (stereo not given),> 100
18,C=CCN(C(=O)CNC(=O)C(F)(F)F)c1cc(OCc2ccccc2)c2c(c1)c(C)cn2S(=O)(=O)c1ccccc1,> 100
19,CSc1ccsc1-c1sc(-c2cc(SC)c(-c3sc(-c4cc(SC)c(-c5sccc5SC)s4)cc3SC)s2)cc1SC,> 100
20,COc1cccc(C2c3cc4c(cc3OC(C)(N3CCCC3)C2C)OCO4)c1 (stereo not given),> 100
21,CCSC1=N/C(=C\c2ccc(N(C)C)cc2)C(Cl)=N1,> 100
22,COC1(OC)CCCc2c1no[n+]2[O-],> 100
23,CC1(C)OC[C@@H]([C@H](O)C2C=CC(=O)S2)O1 (stereo not given in full),> 100
24,Cc1cc(C(F)(F)F)cc(-n2nc(NS(=O)(=O)c3cc(C)c(Cl)cc3S)nc2N)n1,> 100
25,O=C1C=C(NCCOCCO)C(=O)c2c(O)ccc(O)c21,> 100
26,CC1CN=C(N(C(=O)Nc2ccccc2)c2ccc(Cl)c(Cl)c2)S1 (stereo not given),> 100
27,CC(=O)O[C@H]1CC[C@@]2(C)C(=CC[C@H]3[C@@H]4C/C(=C\c5ccc(N(C)C)cc5)[C@H](OC(C)=O)[C@@]4(C)CC[C@@H]32)C1,27.3

# Tested on: HCT-15 colon
# Assay: DTP human tumour cell line panel, 48 h
row,Compound,TGI [µM]
1,Cn1c2c(c3ccccc31)CCN1C(=O)CN(C(=O)C3CCCCC3)CC21 (stereo not given),> 100
2,CC(=O)OCC1OC(OC2CC3C(C)(C)C(O)CC[C@]3(C)C3CCC45CC4(CCC5[C@@H](C)CC(O)C(O)C(C)(C)O)[C@]23C)C(O)C(O)C1O (stereo not given in full),> 10
3,C=C(Nc1nc2ccc(C)cc2s1)C(=O)C(CC)C(=O)C(CC)CC1C(=O)NC(=O)NC1=O (stereo not given),> 100
4,COc1ccc(OC)c(/C=C(/C#N)c2ccccc2)c1,> 100
5,COC(=O)C(C(=O)Cc1ccccc1[N+](=O)[O-])C(=O)OC,> 100
6,CCOC(=O)c1sc2c(c1OC(=O)c1ccc(OC)cc1)c(=O)n(-c1ccccc1)c(=S)n2-c1ccccc1,> 100
7,O=C(Cn1c(-c2ccccc2)cc2ccccc21)N1CCCC1,> 100
8,Cc1ccc(Cl)c2c(=O)c3ccc(N)cc3sc12,54.9
9,C=CCN1CCC(O)(c2cc(C(=O)OCC)[nH]c2-c2cc(C)no2)C1 (stereo not given),> 100
10,CC1CN=C(N(C(=O)Nc2ccc(Cl)c(Cl)c2)c2ccccc2)S1 (stereo not given),> 100
11,CN(C)/N=C1/CCC(C(F)(F)F)(C(F)(F)F)O1,> 100
12,N#Cc1c(-c2ccc(Cl)cc2)c(C#N)c(=O)n(NS(=O)(=O)c2ccccc2)c1O,62.3
13,CCOC(=O)NNC(=O)NCCCCNC(=O)NNC(=O)OCC,> 100
14,COC(=O)c1nsc(OC)c1Cl,> 100
15,[N-]=[N+]=NCc1nc(N)c2c3c(sc2n1)CCCC3,11.4
16,CC(C)(C)OC/C=C(/CO)[C@@H]1C=C[C@H](O)C1,> 100
17,c1ccc2c(c1)SCCC2NC1=NCCO1 (stereo not given),> 100

# From PubChem BioAssay (NCI)
